The assay deals with T1, recombinant human NaV1.8 stably transfected HEK cells (Homo sapiens, UniProt Q9Y5Y9).
T1 construct: expressed in transfected cells; host or cells: HEK cells, stably transfected
As to the kind of experiment: Compound profiling on NaV1.8, human NaV1.8 cell line, SyncroPatch384PE automated patch clamp assay (Example 102, first set of compounds, Table 16). The format is cell-based. The settings on record: human NaV1.8 HEK cells, Table 16 (first set of compounds). A digest of the protocol: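 IC50s come from two read-outs: resting-state block (P1, 10 mV step from −120 mV) and inactivated-state block (P2, after 10 s at −40 mV), scaled between DMSO and 250 μM tetracaine. Compounds (20–0.001 μM final, 1:3 steps) were applied for 5 min, 15 s sweeps. Cells kept at 30 °C the day before.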

Where [1] appears, read: inactivated state block (P2 measurement), read-out: P2IC50.
[2] abbreviates: resting state block (P1 measurement), read-out: P1IC50.

The text below walks through data of patent US20240336574A1 (LATIGO BIOTHERAPEUTICS, INC., priority 2021, published 2024).

Like-named read-outs stand apart in the source and are kept apart here. Where only a bound is given, the exact number is not on record here.

T1 sequence (Q9Y5Y9 whole entry): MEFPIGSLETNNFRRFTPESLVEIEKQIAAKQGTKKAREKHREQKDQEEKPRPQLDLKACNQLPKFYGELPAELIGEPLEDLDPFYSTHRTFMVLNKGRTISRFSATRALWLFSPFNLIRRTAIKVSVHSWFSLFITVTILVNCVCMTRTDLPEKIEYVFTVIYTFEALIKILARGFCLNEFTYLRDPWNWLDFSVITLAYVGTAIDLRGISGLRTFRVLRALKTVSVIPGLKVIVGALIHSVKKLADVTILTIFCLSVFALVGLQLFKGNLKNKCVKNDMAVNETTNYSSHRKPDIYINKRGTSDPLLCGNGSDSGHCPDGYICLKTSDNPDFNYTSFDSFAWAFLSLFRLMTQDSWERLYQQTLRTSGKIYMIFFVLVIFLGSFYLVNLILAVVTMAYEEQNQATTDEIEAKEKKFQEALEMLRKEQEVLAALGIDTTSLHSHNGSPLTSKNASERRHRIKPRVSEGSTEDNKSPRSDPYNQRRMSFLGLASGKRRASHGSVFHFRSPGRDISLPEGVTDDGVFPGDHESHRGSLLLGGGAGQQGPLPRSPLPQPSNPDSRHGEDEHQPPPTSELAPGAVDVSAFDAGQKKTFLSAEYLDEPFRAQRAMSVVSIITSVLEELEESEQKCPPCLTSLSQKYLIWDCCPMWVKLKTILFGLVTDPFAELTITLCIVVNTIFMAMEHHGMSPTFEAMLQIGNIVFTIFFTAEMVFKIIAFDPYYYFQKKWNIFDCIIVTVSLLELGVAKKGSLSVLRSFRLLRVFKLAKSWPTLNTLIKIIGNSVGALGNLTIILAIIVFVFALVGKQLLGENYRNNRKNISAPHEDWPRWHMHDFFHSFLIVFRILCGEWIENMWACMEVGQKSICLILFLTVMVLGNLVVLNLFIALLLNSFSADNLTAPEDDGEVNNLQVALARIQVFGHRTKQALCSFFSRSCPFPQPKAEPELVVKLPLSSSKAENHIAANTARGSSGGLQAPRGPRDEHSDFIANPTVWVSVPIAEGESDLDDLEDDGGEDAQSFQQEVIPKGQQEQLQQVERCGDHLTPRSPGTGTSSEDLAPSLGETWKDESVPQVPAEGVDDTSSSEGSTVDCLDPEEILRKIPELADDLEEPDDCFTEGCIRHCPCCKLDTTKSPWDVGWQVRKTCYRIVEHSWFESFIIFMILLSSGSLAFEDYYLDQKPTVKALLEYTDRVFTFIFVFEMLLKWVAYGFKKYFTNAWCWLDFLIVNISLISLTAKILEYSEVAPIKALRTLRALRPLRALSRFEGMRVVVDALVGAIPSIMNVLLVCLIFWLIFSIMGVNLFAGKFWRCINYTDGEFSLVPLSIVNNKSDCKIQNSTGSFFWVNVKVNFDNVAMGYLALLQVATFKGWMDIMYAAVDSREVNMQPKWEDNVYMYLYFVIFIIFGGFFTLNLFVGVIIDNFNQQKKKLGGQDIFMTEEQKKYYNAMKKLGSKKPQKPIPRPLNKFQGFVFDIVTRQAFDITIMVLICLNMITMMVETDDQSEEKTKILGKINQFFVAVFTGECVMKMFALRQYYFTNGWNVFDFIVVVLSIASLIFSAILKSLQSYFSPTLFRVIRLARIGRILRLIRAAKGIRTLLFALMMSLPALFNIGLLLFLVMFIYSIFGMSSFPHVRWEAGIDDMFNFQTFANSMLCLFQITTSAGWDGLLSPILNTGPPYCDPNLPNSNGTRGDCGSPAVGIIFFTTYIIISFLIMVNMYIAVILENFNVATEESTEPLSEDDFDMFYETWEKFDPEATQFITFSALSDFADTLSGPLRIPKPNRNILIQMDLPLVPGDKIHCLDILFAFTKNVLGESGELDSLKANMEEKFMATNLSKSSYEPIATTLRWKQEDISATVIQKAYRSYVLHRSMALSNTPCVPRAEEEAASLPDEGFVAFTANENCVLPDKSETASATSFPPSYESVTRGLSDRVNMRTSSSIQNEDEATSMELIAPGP

Consider `COC(=O)C12CC(NC(=O)c3cc(C(F)(F)F)cnc3Oc3ccc(F)c(F)c3OC)(C1)C2` [Compound 1679], for which the IC50 reads like this: under setting [1], 200 to 500 nM; under setting [2], 200 to 500 nM.
In the case of `COc1c(Oc2ncc(Br)cc2C(=O)Nc2cccc(C(N)=O)c2)ccc(F)c1F` [Compound 1680], the IC50 fell in the range of 20 to 40 nM under setting [1] and 20 to 40 nM under setting [2].
In the case of `COc1c(Oc2ncc(Br)cc2C(=O)Nc2ccnnc2)ccc(F)c1F` [Compound 1683], the IC50 runs as follows: under setting [1], ≤ 20 nM; under setting [2], 20 to 40 nM.
On the same counts, the results for `Cc1nc(Br)ccc1Oc1ncc(C(F)(F)F)cc1C(=O)Nc1cccc(S(C)(=N)=O)c1` (stereo not shown) [Compound 1684] are ≤ 20 nM and ≤ 20 nM.
Turning to `COc1nc(Br)ccc1Oc1ncc(C(F)(F)F)cc1C(=O)Nc1cccc(S(C)(=N)=O)c1` (stereo not shown) [Compound 1685], the IC50 under setting [1] is ≤ 20 nM and the IC50 under setting [2] was ≤ 20 nM.
Take `COc1cc(C#N)ccc1Oc1ncc(Br)cc1C(=O)Nc1cccc(S(C)(=N)=O)c1` (stereo not shown) [Compound 1686]: the IC50 by setting is: under setting [1], ≤ 20 nM; under setting [2], ≤ 20 nM.
Turning to `CC(C#N)Oc1cc(F)c(Oc2ncc(C(F)(F)F)cc2C(=O)Nc2cccc(C(N)=O)c2)cc1F` (stereo not shown) [Compound 1687], the IC50 under setting [1] fell in the range of 200 to 500 nM and the IC50 under setting [2] lay in the range of 200 to 500 nM.
Take `CC(C#N)Oc1cc(F)c(Oc2ncc(C(F)(F)F)cc2C(=O)Nc2ccc(C(N)=O)cc2)cc1F` (stereo not shown) [Compound 1688]: the IC50 under setting [1] was in the range of 200 to 500 nM and the IC50 under setting [2] lay within 200 to 500 nM.
As for `CC(C#N)Oc1cc(F)c(Oc2ncc(C(F)(F)F)cc2C(=O)Nc2cccc(S(C)(=N)=O)c2)cc1F` (stereo not shown) [Compound 1689], the IC50 is, setting by setting: under setting [1], 40 to 200 nM; under setting [2], 40 to 200 nM.
As to `Cc1ccc(Oc2ncc(C(F)(F)F)cc2C(=O)Nc2cccc(S(C)(=N)=O)c2)c(OC(F)F)n1` (stereo not shown) [Compound 1690], the IC50 by setting is: under setting [1], ≤ 20 nM; under setting [2], ≤ 20 nM.
For the compound `Cc1ccc(Oc2ncc(C(F)(F)F)cc2C(=O)Nc2cccc(C(N)=O)c2)c(OC(F)F)n1` [Compound 1691], the IC50 by setting is: under setting [1], 40 to 200 nM; under setting [2], 40 to 200 nM.
As for `N#Cc1cc(F)ccc1Oc1ncc(C(F)(F)F)cc1C(=O)Nc1cccc(C(N)=O)c1` [Compound 1692], the IC50 was in the range of 40 to 200 nM under setting [1] and 40 to 200 nM under setting [2].
On to `Cc1nc(C#N)ccc1Oc1ncc(C(F)(F)F)cc1C(=O)Nc1cccc(S(C)(=O)=O)c1` [Compound 1693], for which the IC50 is ≤ 20 nM under setting [1] and ≤ 20 nM under setting [2].
For `Cc1cc(C#N)ncc1Oc1ncc(C(F)(F)F)cc1C(=O)Nc1cccc(S(C)(=O)=O)c1` [Compound 1694], the IC50 under setting [1] was in the range of 200 to 500 nM and the IC50 under setting [2] was 200 to 500 nM.
`NC(=O)c1cccc(NC(=O)c2cc(C(F)(F)F)cnc2Oc2cnc(C(F)(F)F)nc2)c1` [Compound 1695]: the IC50 is, setting by setting: under setting [1], 200 to 500 nM; under setting [2], 200 to 500 nM.
Take `CS(=N)(=O)c1cccc(NC(=O)c2cc(C(F)(F)F)cnc2Oc2cnc(C(F)(F)F)nc2)c1` (stereo not shown) [Compound 1696]: the IC50 fell in the range of 200 to 500 nM under setting [1] and 200 to 500 nM under setting [2].
As for `Cc1c(C#N)ccc(Oc2ncc(C(F)(F)F)cc2C(=O)Nc2cccc(C(N)=O)c2)c1F` [Compound 1697], the IC50 was 20 to 40 nM under setting [1] and 20 to 40 nM under setting [2].
Turning to `COc1ncc(Oc2ncc(C(F)(F)F)cc2C(=O)Nc2cccc(C(N)=O)c2)cc1F` [Compound 1698], the IC50 under setting [1] is 200 to 500 nM and the IC50 under setting [2] lay in the range of 200 to 500 nM.
As for `COc1ncc(Oc2ncc(C(F)(F)F)cc2C(=O)Nc2cccc(S(C)(=N)=O)c2)cc1F` (stereo not shown) [Compound 1699], the IC50 is, setting by setting: under setting [1], 200 to 500 nM; under setting [2], 200 to 500 nM.
Take `Cc1nc(C#N)ccc1Oc1ncc(C(F)(F)F)cc1C(=O)Nc1cccc(C(N)=O)c1` [Compound 1700]: the IC50 reads like this: under setting [1], 200 to 500 nM; under setting [2], 200 to 500 nM.
As to `Cc1nc(C#N)ccc1Oc1ncc(C(F)(F)F)cc1C(=O)Nc1cccc(S(C)(=N)=O)c1` (stereo not shown) [Compound 1701], the IC50 by setting is: under setting [1], 20 to 40 nM; under setting [2], 20 to 40 nM.
`COc1cc(C#N)ccc1Oc1ncc(C(F)(F)F)cc1C(=O)Nc1ccc[n+]([O-])c1` [Compound 1702]: the IC50 was 40 to 200 nM under setting [1] and 40 to 200 nM under setting [2].
As for `CS(=O)(=O)c1cccc(NC(=O)c2cc(C(F)(F)F)cnc2Oc2ccc(C#N)nc2)c1` [Compound 1703], the IC50 by setting is: under setting [1], 200 to 500 nM; under setting [2], 200 to 500 nM.
For `CC(C)Oc1ccc(Oc2ncc(C(F)(F)F)cc2C(=O)Nc2cccc(S(C)(=N)=O)c2)c(F)c1` (stereo not shown) [Compound 1706], the IC50 runs as follows: under setting [1], 200 to 500 nM; under setting [2], 200 to 500 nM.
Take `CC(C)Oc1ccc(Oc2ncc(C(F)(F)F)cc2C(=O)Nc2cccc(S(C)(=N)=O)c2)c(F)c1F` (stereo not shown) [Compound 1707]: the IC50 reads like this: under setting [1], ≤ 20 nM; under setting [2], ≤ 20 nM.
On to `CC(C)Oc1ccc(Oc2ncc(C(F)(F)F)cc2C(=O)Nc2cccc(C(N)=O)c2)c(F)c1` [Compound 1708], for which the IC50 by setting is: under setting [1], 200 to 500 nM; under setting [2], 200 to 500 nM.
As to `CC(C)Oc1ccc(Oc2ncc(C(F)(F)F)cc2C(=O)Nc2cccc(C(N)=O)c2)c(F)c1F` [Compound 1709], the IC50 reads like this: under setting [1], 20 to 40 nM; under setting [2], ≤ 20 nM.
The matching figures for `CC(C)Oc1ccc(Oc2ncc(C(F)(F)F)cc2C(=O)Nc2ccc(C(N)=O)cc2)c(F)c1` [Compound 1710]: 200 to 500 nM and 200 to 500 nM.
The matching figures for `CC(C)Oc1ccc(Oc2ncc(C(F)(F)F)cc2C(=O)Nc2ccc(C(N)=O)cc2)c(F)c1F` [Compound 1711]: 20 to 40 nM and 20 to 40 nM.
On to `Cc1c(Oc2ncc(C(F)(F)F)cc2C(=O)Nc2cccc(S(C)(=N)=O)c2)ccc(OC(F)(F)F)c1F` (stereo not shown) [Compound 1712], for which the IC50 is ≤ 20 nM under setting [1] and ≤ 20 nM under setting [2].
On to `CC(=O)N=[S@](C)(=O)c1cccc(NC(=O)c2cc(C(F)(F)F)cnc2Oc2ccc(F)cc2C)c1` [Compound 1716, N-[3-(N-acetyl-S-methyl-sulfonimidoyl)phenyl]-2-(4-fluoro-2-methyl-phenoxy)-5-(trifluoromethyl)pyridine-3-carboxamide], for which the IC50 under setting [1] was ≤ 20 nM and the IC50 under setting [2] was ≤ 20 nM.
Consider `CN=S(C)(=O)c1cccc(NC(=O)c2cc(C(F)(F)F)cnc2Oc2ccc(F)cc2C)c1` (stereo not shown) [Compound 1717, N-[3-(N,S-dimethylsulfonimidoyl)phenyl]-2-(4-fluoro-2-methyl-phenoxy)-5-(trifluoromethyl)pyridine-3-carboxamide], for which the IC50 was ≤ 20 nM under setting [1] and ≤ 20 nM under setting [2].
Regarding `CS(=O)(=O)c1cccc(NC(=O)c2cc(C(F)(F)F)cnc2Oc2cccc(S(C)(=O)=O)c2)c1` [Compound 1718, 2-(3-methylsulfonylphenoxy)-N-(3-methylsulfonylphenyl)-5-(trifluoromethyl)pyridine-3-carboxamide], the IC50 by setting is: under setting [1], 200 to 500 nM; under setting [2], 200 to 500 nM.
With `Cc1cc(F)ccc1Oc1ncc(C(F)(F)F)cc1C(=O)Nc1cccc([S@@](C)(=O)=NC(=O)CN(C)C(=O)OC(C)(C)C)c1` [Compound 1719, tert-butyl (R)-(2-(((3-(2-(4-fluoro-2-methylphenoxy)-5-(trifluoromethyl)nicotinamido)phenyl)(methyl)(oxo)-λ^6-sulfaneylidene)amino)-2-oxoethyl)(methyl)carbamate], the IC50 was ≤ 20 nM under setting [1] and ≤ 20 nM under setting [2].
`CNCC(=O)N=[S@](C)(=O)c1cccc(NC(=O)c2cc(C(F)(F)F)cnc2Oc2ccc(F)cc2C)c1` [Compound 1720, (R)-2-(4-fluoro-2-methylphenoxy)-N-(3-(S-methyl-N-(methylglycyl)sulfonimidoyl)phenyl)-5-(trifluoromethyl)nicotinamide]: the IC50 by setting is: under setting [1], ≤ 20 nM; under setting [2], ≤ 20 nM.
Consider `COc1cc(C#N)ccc1Oc1ncc(C(F)(F)F)cc1C(=O)NC12CC(C(N)=O)(C1)C2` [Compound 1721, N-(3-carbamoyl-1-bicyclo[1.1.1]pentanyl)-2-(4-cyano-2-methoxy-phenoxy)-5-(trifluoromethyl)pyridine-3-carboxamide], for which the IC50 was in the range of 200 to 500 nM under setting [1] and 200 to 500 nM under setting [2].
Take `COc1c(Oc2ncc(C(F)(F)F)cc2C(=O)NC23CC(C(N)=O)(C2)C3)ccc(F)c1F` [Compound 1722, N-(3-carbamoyl-1-bicyclo[1.1.1]pentanyl)-2-(3,4-difluoro-2-methoxy-phenoxy)-5-(trifluoromethyl)pyridine-3-carboxamide]: the IC50 lay within 200 to 500 nM under setting [1] and 200 to 500 nM under setting [2].
Consider `COc1c(Oc2ncc(C#N)cc2C(=O)Nc2cccc(S(C)(=N)=O)c2)ccc(F)c1F` (stereo not shown) [Compound 1723, 5-cyano-2-(3,4-difluoro-2-methoxy-phenoxy)-N-[3 (methylsulfonimidoyl)phenyl]pyridine-3-carboxamide], for which the IC50 was in the range of 20 to 40 nM under setting [1] and 20 to 40 nM under setting [2].
`COc1c(Oc2ncc(C#N)cc2C(=O)Nc2cccc(C(N)=O)c2)ccc(F)c1F` [Compound 1724, N-(3-carbamoylphenyl)-5-cyano-2-(3,4-difluoro-2-methoxy-phenoxy)pyridine-3-carboxamide]: the IC50 under setting [1] was 40 to 200 nM and the IC50 under setting [2] lay in the range of 40 to 200 nM.
For the compound `COc1cc(C#N)ccc1Oc1ncc(C23CCOCC2C3)cc1C(=O)Nc1cccc(S(C)(=N)=O)c1` (stereo not shown) [Compound 1725, 2-(4-cyano-2-methoxy-phenoxy)-N-[3-(methylsulfonimidoyl)phenyl]-5-(3-oxabicyclo[4.1.0]heptan-6-yl)pyridine-3-carboxamide], the IC50 fell in the range of 200 to 500 nM under setting [1] and 200 to 500 nM under setting [2].
On to `COc1cc(C#N)ccc1Oc1ncc(C2=CCOCC2)cc1C(=O)Nc1cccc(S(C)(=N)=O)c1` (stereo not shown) [Compound 1726, 2-(4-cyano-2-methoxy-phenoxy)-5-(3,6-dihydro-2H-pyran-4-yl)-N-[3-(methylsulfonimidoyl)phenyl]pyridine-3-carboxamide], for which the IC50 is, setting by setting: under setting [1], 200 to 500 nM; under setting [2], 200 to 500 nM.
